SMILES strings stand for the structures.

As a reminder, the IC50 is the point on the concentration scale where inhibition reaches its midpoint.

What all share (type): cell-based
Test [1] can be described thus: Inhibition of Smo-mediated hedgehog signaling pathway in mouse C3H10T1/2 cells after 6 days by Gli-dependent luciferase reporter gene assay. Conditions: C3H 10T1/2, 144 h.
The nature of test [2]: Inhibition of Smo-mediated hedgehog signaling pathway in mouse Light2 cells in Shh conditioned medium after 48 hrs by Gli-Renilla luciferase reporter gene assay.
Test [3] is described as follows: Inhibition of hedgehog signaling pathway in mouse Light2 cells in Shh-N conditioned medium after 24 hrs by dual luciferase reporter gene assay. In general terms: A reporter such as luciferase makes a cellular process visible.
The nature of test [4]: Inhibition of hedgehog signaling pathway in mouse Light2 cells in Shh conditioned medium assessed as reduction in GLI1 expression by Western blot analysis. For orientation: A western blot detects proteins with antibodies after separation by electrophoresis.
A short description of test [5]: Inhibition of hedgehog signaling pathway in mouse Light2 cells in Shh conditioned medium assessed as reduction in GLI2 expression by Western blot analysis.

For `COc1cc(C(=O)NC(=N)Nc2ccc(C)c(NC(=O)c3ccc(-c4ccccc4)cc3)c2)cc(OC)c1OC`, in test [1], it took 15 nM to reach half-maximal inhibition (IC50). `Cc1ccc(Cn2ncc3nc(-c4ccc(N5CCN(C(=O)CCc6c[nH]c7ccccc67)CC5)cc4)[nH]c32)cc1` showed an IC50 in test [2] of 1400 nM. The compound `COc1cc(C(=O)NC(=S)Nc2cccc(NC(=O)c3ccccc3)c2)cc(OC)c1OC` returned an IC50 in test [1] of 650 nM. As to `CC[C@@H](C)C(=O)O[C@@H](C)[C@]1(O)CC[C@@]2(O)[C@]1(C)[C@H](OC(=O)/C=C/c1ccccc1)C[C@@H]1[C@@]3(C)CC[C@H](O)CC3=CC[C@]12O`, the concentration for half-maximal inhibition (IC50) in test [3] turned out to be 3.7 µM. Take `C[C@@H]1CC[C@@]2(NC1)O[C@H]1C[C@H]3[C@@H]4CC=C5C[C@@H](O[C@@H]6O[C@H](CO)[C@H](O)[C@H](O[C@@H]7O[C@H](CO)[C@@H](O)[C@H](O)[C@H]7O)[C@H]6O[C@@H]6O[C@@H](C)[C@H](O)[C@@H](O)[C@H]6O)CC[C@]5(C)[C@H]4CC[C@]3(C)[C@H]1[C@@H]2C` [SOLASONINE]: the 50% inhibitory concentration (IC50) in test [4] amounted to 2490 nM; in test [5], 2300 nM. With `COc1ccc(/C=C/C(=O)c2cc(OC)c(OC)cc2OC)cc1OC`, 4440 nM corresponded to half-maximal inhibition in test [2] (IC50).

With `CCC(C)n1ncn(-c2ccc(N3CCN(c4ccc(OCC5COC(Cn6cncn6)(c6ccc(Cl)cc6Cl)O5)cc4)CC3)cc2)c1=O` (stereo not given) [ITRACONAZOLE], the half-maximal inhibitory concentration (IC50) in test [2] amounted to 690 nM. As to `CC[C@H](C)C(=O)O[C@@H](C)[C@]1(O)CC[C@@]2(O)[C@]1(C)[C@H](OC(=O)/C=C/c1ccccc1)C[C@@H]1[C@@]3(C)CC[C@H](O)CC3=CC[C@]12O`, the IC50 in test [3] is 2.9 µM. In test [1], `COc1cc(C(=O)NC(=N)Nc2ccc(C)c(NC(=O)c3ccc(CCc4ccccc4)cc3)c2)cc(OC)c1OC` registered an IC50 of 2.8 nM.

Source of the values: ChEMBL document CHEMBL4265903, “Current trends in Hedgehog signaling pathway inhibition by small molecules” (Bioorg Med Chem Lett, 2018).
